Laboratory results from US4113946A, “Δ^2,3 -1,4-Morpholine-2-carboxylic acid derivatives as antibacterial agents” (Bristol-Myers Company, priority 1977, dated 1978).
Values after ≈ are worked out from the molar mass of the structure shown. Structures can show the parent of a compound that is named as a salt. Where two headings read alike, the source gives them in different places.

How the values were obtained:
D. pneumoniae A9585 = assay: M.I.C. by tube dilution, D. pneumoniae A9585; type: cell-based; settings: Streptococcus pneumoniae, A9585
Str. pyogenes A9604 = assay: M.I.C. by tube dilution, Str. pyogenes A9604; type: cell-based; settings: Streptococcus pyogenes, +5% serum, 50% Nutrient Broth - 45% Antibiotic Assay Broth, overnight 37° C., read-out: M.I.C.
S. aureus Smith A9537 = assay: M.I.C. by tube dilution, S. aureus Smith A9537; type: cell-based; settings: Staphylococcus aureus
S. aureus BX1633-2 A9606 = assay: M.I.C. by tube dilution, S. aureus BX1633-2 A9606; type: cell-based; settings: overnight 37° C.; for MIC: Staphylococcus aureus
Sal. enteritidis A9531 = assay: M.I.C. by tube dilution, Sal. enteritidis A9531; type: cell-based; settings: Salmonella enterica, ENTERITIDIS
E. coli Juhl A15119 = assay: M.I.C. by tube dilution, E. coli Juhl A15119; type: cell-based; settings: Escherichia coli, JUHLA15119
E. coli A9675 = assay: M.I.C. by tube dilution, E. coli A9675; type: cell-based; settings: Escherichia coli
K. pneumoniae A9977 = assay: M.I.C. by tube dilution, K. pneumoniae A9977; type: cell-based; settings: Klebsiella pneumoniae
K. pneumoniae A15130 = assay: M.I.C. by tube dilution, K. pneumoniae A15130; type: cell-based; settings: Klebsiella pneumoniae
Pr. mirabilis A9900 = assay: M.I.C. by tube dilution, Pr. mirabilis A9900; type: cell-based; settings: Proteus mirabilis
Pr. morganii A15153 = assay: M.I.C. by tube dilution, Pr. morganii A15153; type: cell-based; settings: Morganella morganii
Ps. aeruginosa A9843A = assay: microbe, parasite or virus in culture; type: cell-based; settings: Pseudomonas aeruginosa
Ser. marcescens A20019 = assay: M.I.C. by tube dilution, Ser. marcescens A20019; type: cell-based; settings: Serratia marcescens
Ent. cloacae A9656 = assay: M.I.C. by tube dilution, Ent. cloacae A9656; type: cell-based; settings: Enterobacter cloacae
Ent. cloacae A9657 = assay: M.I.C. by tube dilution, Ent. cloacae A9657; type: cell-based; settings: Enterobacter cloacae
Ent. cloacae A9659 = assay: M.I.C. by tube dilution, Ent. cloacae A9659; type: cell-based; settings: Enterobacter cloacae, A9659, overnight 37° C.
[1] = tested on: S. aureus meth.-resist; A15097; assay: M.I.C. by tube dilution, S. aureus meth.-resist A15097; type: cell-based; settings: Staphylococcus aureus, at 10^-3 dil'n, overnight 37° C.
St. pyrogenes = assay: Inhibition of St. pyrogenes; type: cell-based; settings: read-out: found to inhibit St. pyrogenes at a concentration of
in vivo = settings: mouse, po, 100 mg/kg
[2] = +5% serum, 50% Nutrient Broth - 45% Antibiotic Assay Broth, overnight 37° C., read-out: M.I.C.
[3] = SMITHA9537, +50% serum, at 10^-4 dilution, overnight 37° C.
[4] = SMITHA9537, at 10^-4 dilution, overnight 37° C., read-out: M.I.C.
[5] = BX16332A9606, at 10^-2 dil'n, read-out: M.I.C.
[6] = at 10^-4 dilution, overnight 37° C., read-out: M.I.C.
[7] = A9657, overnight 37° C., read-out: M.I.C.
[8] = SMITHA9537, at 10^-4 dilution, overnight 37° C.
[9] = overnight 37° C., read-out: M.I.C.

Row | SMILES | MIC (D. pneumoniae A9585; [2]) [µg/mL] | MIC (Str. pyogenes A9604) [µg/mL] | MIC (S. aureus Smith A9537; [3]) [µg/mL] | MIC (S. aureus Smith A9537; [4]) [µg/mL] | MIC (S. aureus BX1633-2 A9606; BX16332A9606, at 10^-2 dil'n) [µg/mL] | MIC (S. aureus BX1633-2 A9606; BX16332A9606, at 10^-3 dil'n) [µg/mL] | MIC (Sal. enteritidis A9531) [µg/mL] | MIC (E. coli Juhl A15119) [µg/mL] | MIC (E. coli A9675) [µg/mL] | MIC (K. pneumoniae A9977) [µg/mL] | MIC (K. pneumoniae A15130) [µg/mL] | MIC (Pr. mirabilis A9900) [µg/mL] | MIC (Pr. morganii A15153) [µg/mL] | MIC (Ps. aeruginosa A9843A) [µg/mL] | MIC (Ser. marcescens A20019) [µg/mL] | MIC (Ent. cloacae A9656) [µg/mL] | MIC (Ent. cloacae A9657; A9657) [µg/mL] | MIC (Ent. cloacae A9659) [µg/mL] | MIC [1] [µg/mL] | MIC (Ent. cloacae A9657; [7]) [µg/mL] | further results
1 | O=C(COc1ccccc1)NC1C(=O)N2C(C(=O)O)=C(Cc3ccccc3)OCC12 (stereo not drawn) [BC-L17, 7β-phenoxyacetamido-3-benzyl-Δ^3 -O-2-isocephem-4-carboxylic acid] | 0.25 (≈ 0.612 µM) | 0.25 (≈ 0.612 µM) | 1 (≈ 2.45 µM) | 0.25 (≈ 0.612 µM) | > 125 | 8 (≈ 19.6 µM) | 32 (≈ 78.4 µM) | > 125 | > 125 | > 125 | > 125 | > 125 | > 125 | > 125 | > 125 | > 125 | > 125 | > 125 | 125 (≈ 306 µM) | – | –
2 | CC1=C(C(=O)O)N2C(=O)[C@@H](N)[C@H]2CO1 (relative stereo) [BC-L61, 7β-Amino-3-methyl-Δ^3 -O-2-isocephem-4-carboxylic acid] | – | – | – | – | – | – | – | – | – | – | – | – | – | – | – | – | – | – | – | – | MIC (D. pneumoniae A9585; read-out: found to inhibit D. pneumoniae A9585 at a concentration of): > 8 µg/mL; MIC (S. aureus Smith A9537; SMITHA9537, read-out: found to inhibit S. aureus A9537 at a concentration of): > 125 µg/mL; MIC (E. coli Juhl A15119; read-out: found to inhibit E. coli A15119 at a concentration of): > 125 µg/mL; MIC (St. pyrogenes): > 8 µg/mL
3 | CC1=C(C(=O)O)N2C(=O)[C@@H](NC(=O)[C@H](N)c3ccccc3)[C@H]2SC1 [Cephalexin, cephalexin, reference compound] | – | – | – | – | – | – | – | – | 32 (≈ 92.1 µM) | – | – | – | – | – | – | – | – | 125 (≈ 360 µM) | – | 2 (≈ 5.76 µM) | MIC (S. aureus BX1633-2 A9606; [5]): 4 µg/mL (≈ 11.5 µM); MIC (S. aureus BX1633-2 A9606; BX16332A9606, at 10^-3 dil'n, read-out: M.I.C.): 4 µg/mL (≈ 11.5 µM); M.I.C. (S. aureus BX1633-2 A9606; at 10^-2 dil'n): 8 meg./ml.; M.I.C. (S. aureus BX1633-2 A9606; at 10^-3 dil'n): 2 meg./ml.; MIC (Sal. enteritidis A9531; [6]): 1 µg/mL (≈ 2.88 µM); MIC ([1]; read-out: M.I.C.): 63 µg/mL (≈ 181 µM)
4 | CC1=C(C(=O)O)N2C(=O)[C@@H](NC(=O)[C@H](N)c3ccccc3)[C@H]2CO1 [BC-L9, 7β-(D-α-aminophenylacetamido)-3-methyl-Δ^3 -O-2-isocephem-4-carboxylic acid hydrochloride] | 0.5 | 0.5 | 16 | – | 32 | 8 | 16 | 32 | – | 16 | – | – | – | > 500 | – | – | 32 | 125 | 32 | – | MIC (S. aureus Smith A9537; [8]): 2 µg/mL; MIC (E. coli A9675; [6]): 63 µg/mL; MIC (K. pneumoniae A15130; [6]): 63 µg/mL; MIC (Pr. mirabilis A9900; [6]): 63 µg/mL; MIC (Pr. morganii A15153; [6]): 250 µg/mL; MIC (Ser. marcescens A20019; [6]): 500 µg/mL; MIC (Ent. cloacae A9656; [9]): 500 µg/mL
5 | O=C(COc1ccccc1)NC1C(=O)N2C(C(=O)O)=C(CCc3ccccc3)OCC12 (stereo not drawn) [BC-L54, 7β-phenoxyacetamido-3-phenethyl-Δ^3 -O-2-isocephem-4-carboxylic acid] | 0.03 (≈ 0.071 µM) | 0.03 (≈ 0.071 µM) | – | 0.06 (≈ 0.142 µM) | > 125 | 8 (≈ 18.9 µM) | > 125 | – | > 125 | > 125 | > 125 | > 125 | > 125 | > 125 | > 125 | > 125 | > 125 | > 125 | 125 (≈ 296 µM) | – | MIC (S. aureus Smith A9537; SMITHA9537, +50% serum, at 10^-4 dilution, overnight 37° C., read-out: M.I.C.): 4 µg/mL (≈ 9.47 µM); MIC (E. coli Juhl A15119; [6]): 0.5 µg/mL (≈ 1.18 µM)
6 | CC1=C(C(=O)O)N2C(=O)[C@@H](NC(=O)C(N)c3ccccc3)[C@H]2CO1 (stereo partly drawn) [BC-L45, 7β-(α-amino-α-phenylacetamido)-3-methyl-Δ^3 -O-2-isocephem-4-carboxylic acid] | < 0.25 | < 0.25 | 8 (≈ 24.1 µM) | – | – | 8 (≈ 24.1 µM) | – | – | 32 (≈ 96.6 µM) | – | 8 (≈ 24.1 µM) | 8 (≈ 24.1 µM) | – | > 125 | > 125 | 125 (≈ 377 µM) | – | 125 (≈ 377 µM) | – | 4 (≈ 12.1 µM) | MIC (S. aureus Smith A9537; [8]): 1 µg/mL (≈ 3.02 µM); MIC (S. aureus BX1633-2 A9606; [5]): 63 µg/mL (≈ 190 µM); MIC (Sal. enteritidis A9531; [6]): 4 µg/mL (≈ 12.1 µM); MIC (E. coli Juhl A15119; [6]): 4 µg/mL (≈ 12.1 µM); MIC (K. pneumoniae A9977; [6]): 4 µg/mL (≈ 12.1 µM); MIC (Pr. morganii A15153; [6]): 63 µg/mL (≈ 190 µM); MIC ([1]; read-out: M.I.C.): 63 µg/mL (≈ 190 µM); concentration at 0.5 h (in vivo): 19400 ng/mL; concentration at 1 h (in vivo): 15700 ng/mL; concentration at 2 h (in vivo): 7300 ng/mL; concentration at 3.5 h (in vivo): 2900 ng/mL
7 | CC1=C(C(=O)O)N2C(=O)[C@@H](NC(=O)COc3ccccc3)[C@H]2CO1 (relative stereo) [BC-L8, 7β-phenoxyacetamido-3-methyl-O-2-isocephem-4-carboxylic acid] | 0.5 (≈ 1.5 µM) | 0.5 (≈ 1.5 µM) | 2 (≈ 6.02 µM) | 0.5 (≈ 1.5 µM) | 32 (≈ 96.3 µM) | 2 (≈ 6.02 µM) | 8 (≈ 24.1 µM) | – | – | 32 (≈ 96.3 µM) | – | 16 (≈ 48.1 µM) | – | 500 (≈ 1500 µM) | – | – | – | – | 32 (≈ 96.3 µM) | 63 (≈ 190 µM) | MIC (E. coli Juhl A15119; [6]): 63 µg/mL (≈ 190 µM); MIC (E. coli A9675; [6]): 250 µg/mL (≈ 752 µM); MIC (K. pneumoniae A15130; [6]): 500 µg/mL (≈ 1500 µM); MIC (Pr. morganii A15153; [6]): 500 µg/mL (≈ 1500 µM); MIC (Ser. marcescens A20019; [6]): 500 µg/mL (≈ 1500 µM); MIC (Ent. cloacae A9656; [9]): 500 µg/mL (≈ 1500 µM); MIC (Ent. cloacae A9659; read-out: M.I.C.): 500 µg/mL (≈ 1500 µM)
8 | COC(=O)CC1=C(C(=O)O)N2C(=O)[C@@H](NC(=O)COc3ccccc3)[C@H]2CO1 (relative stereo) [BC-L33, 7β-Phenoxyacetamido-3-carbomethoxymethylene-Δ^3 -O-2-isocephem-4-carboxylic acid] | 0.06 (≈ 0.154 µM) | 0.06 (≈ 0.154 µM) | 1 (≈ 2.56 µM) | 0.25 (≈ 0.64 µM) | > 125 | 16 (≈ 41 µM) | 8 (≈ 20.5 µM) | 125 (≈ 320 µM) | > 125 | – | > 125 | 32 (≈ 82 µM) | > 125 | > 125 | > 125 | > 125 | > 125 | > 125 | > 125 | – | MIC (K. pneumoniae A9977; [6]): 63 µg/mL (≈ 161 µM)
